From US10420772B2, “Animal and human anti-trypanosomonal and anti-leishmania agents” (Celgene Corporation, priority 2016, dated 2019)
Where two headings read alike, the source gives them in different places.

Experiments:
Type in all cases: cell-based
[1] = system: STIB 806 K T. evansi (drug sensitive) strain; assay: In vitro Alamar Blue 72 hrs drug sensitivity assay for T. evansi; details: read-out: T. evansi Act.
Procedure: In vitro Alamar Blue 72 hrs drug sensitivity assay for T. evansi. Compounds were tested in vitro for chemotherapeutic efficacy against the STIB 806 K T. evansi (drug sensitive) strain, using an Alamar Blue assay. Test compounds were prepared as 10 mg/mL DMSO stocks for each assay run. Compounds were assayed in at least three separate, independent test runs and an 11-point dilution curve was used to determine the IC50 values. Bloodstream form trypanosomes were incubated with test compounds for 69 hrs at 37° C. in a humidified atmosphere containing 5% CO2, supported in HMI media containing 15% horse serum. Thereafter, 10 μL of Resazurin dye (12.5 mg in 100 mL of phosphate buffered saline, Sigma-Aldrich, Buchs, Switzerland) were added for an additional 3 hrs. Plates were then read using a fluorescent plate reader (Spectramax, Gemini XS, Bucher Biotec, Basel, Switzerland) using an excitation wavelength of 536 nm and an emission wavelength of 588 nm. Data points were averaged to generate sigmoidal dose-response curves and IC50 values were determined using Softmax Pro 5.2 software.

[2] = system: STIB 719/ILRAD 560 T. vivax (drug sensitive) strain; assay: Ex vivo Alamar Blue 48 hrs drug sensitivity assay for T. vivax; details: Trypanosoma vivax, read-out: T. vivax Act.
Procedure: Ex vivo Alamar Blue48 hrs drug sensitivity assay for T. vivax. Compounds were tested ex vivo for chemotherapeutic efficacy against the STIB 719/ILRAD 560 T. vivax (drug sensitive) strain, using an Alamar Blue assay. Test compounds were prepared as 10 mg/mL DMSO stocks for each assay run. Compounds were assayed in at least three separate, independent test runs and an 11-point dilution curve was used to determine the IC50 values. Bloodstream form trypanosomes were propagated and harvested from a highly parasitaemic mouse (via cardiac puncture) and were incubated with test compounds for 45 hrs at 37° C. in a humidified atmosphere containing 5% CO2, supported in HMI media containing 20% bovine serum. Thereafter, 10 μL of Resazurin dye (12.5 mg in 100 mL of phosphate buffered saline, Sigma-Aldrich, Buchs, Switzerland) were added for an additional 3 hrs. Plates were then read using a fluorescent plate reader (Spectramax, Gemini XS, Bucher Biotec, Basel, Switzerland) using an excitation wavelength of 536 nm and an emission wavelength of 588 nm. Data points were averaged to generate sigmoidal dose-response curves and IC50 values were determined using Softmax Pro 5.2 software.

[3] = system: IL3000 T. congolense (drug sensitive) strain; assay: In vitro Alamar Blue 72 hrs drug sensitivity assay for T. congolense; details: Trypanosoma congolense, IL3000 T. congolense bloodstream form, read-out: T. congo Act.
Procedure: In Vitro Alamar Blue 72 Hrs Drug Sensitivity Assay for T. Congolense. Compounds were tested in vitro for chemotherapeutic efficacy against the IL3000 T. congolense (drug sensitive) strain using an Alamar Blue assay. Test compounds were prepared as 10 mg/mL DMSO stocks for each assay run. Compounds were assayed in at least three separate, independent test runs and an 11-point dilution curve was used to determine the IC50 values. Bloodstream form trypanosomes were supported in HMI media containing 20% bovine serum and were incubated with test compounds for 69 hrs at 34° C. in a humidified atmosphere containing 5% CO2. Thereafter, 10 μL of Resazurin dye (12.5 mg in 100 mL of phosphate buffered saline, Sigma-Aldrich, Buchs, Switzerland) were added for an additional 3 hrs. Plates were then read using a fluorescent plate reader (Spectramax, Gemini XS, Bucher Biotec, Basel, Switzerland) using an excitation wavelength of 536 nm and an emission wavelength of 588 nm. Data points were averaged to generate sigmoidal dose-response curves and IC50 values were determined using Softmax Pro 5.2 software.

[4] = STIB 806 K T. evansi bloodstream form, Alamar Blue, 72 hrs
[5] = STIB719, STIB 719/ILRAD 560 T. vivax bloodstream form, ex vivo, Alamar Blue, 48 hrs

## CC(=O)NC[C@H]1CC[C@@H](n2c(Nc3cccc(Cl)c3)nc3cnc(NC4(C)CCOCC4)nc32)CC1 [A-11, N-(((1s,4s)-4-(8-(3-chlorophenylamino)-2-(4-methyltetrahydro-2H-pyran-4-ylamino)-9H-purin-9-yl)cyclohexyl)methyl)acetamide]
[1]; [4]
  IC50: 350 to 500 nM
[2]; [5]
  IC50: < 150 nM
[3]
  IC50: 350 to 500 nM

## CC1(Nc2ncc3nc(Nc4cc(Cl)ccc4F)n([C@H]4CC[C@@H](CN)CC4)c3n2)CCOCC1 [A-50, 9-((1s,4s)-4-(aminomethyl)cyclohexyl)-N8-(5-chloro-2-fluorophenyl)-N2-(4-methyltetrahydro-2H-pyran-4-yl)-9H-purine-2,8-diamine]
[1]; [4]
  IC50: < 150 nM
[3]
  IC50: < 150 nM

## CC1(Nc2ncc3nc(Nc4cccc(Cl)c4)n([C@H]4CC[C@H](CN)CC4)c3n2)CCOCC1 [A-7, 9-((1r,4r)-4-(aminomethyl)cyclohexyl)-N8-(3-chlorophenyl)-N2-(4-methyltetrahydro-2H-pyran-4-yl)-9H-purine-2,8-diamine]
[1]; [4]
  IC50: < 150 nM
[2]; [5]
  IC50: < 150 nM
[3]
  IC50: < 150 nM

## CC1(Nc2ncc3nc(Nc4cc(Cl)cc(Cl)c4)n([C@H]4CC[C@@H](CN)CC4)c3n2)CCOCC1 [A-43, 9-((1s,4s)-4-(aminomethyl)cyclohexyl)-N8-(3,5-dichlorophenyl)-N2-(4-methyltetrahydro-2H-pyran-4-yl)-9H-purine-2,8-diamine]
[1]; [4]
  IC50: < 150 nM
[2]; [5]
  IC50: < 150 nM
[3]
  IC50: < 150 nM

## CC1(Nc2ncc3nc(Nc4cccc(Cl)c4)n(C4CCC(CN)CC4)c3n2)CCCC1 (stereo not shown) [A-4, 9-((1s,4s)-4-(aminomethyl)cyclohexyl)-N8-(3-chlorophenyl)-N2-(1-methylcyclopentyl)-9H-purine-2,8-diamine]
[1]; 72 h
  IC50: < 150 nM
[2]; STIB719, 48 h
  IC50: < 150 nM
[3]
  IC50: < 150 nM

## CC1(Nc2ncc3nc(Nc4cccc(OC(F)(F)F)c4)n([C@H]4CC[C@@H](CN)CC4)c3n2)CCOCC1 [A-37, 9-((1s,4s)-4-(aminomethyl)cyclohexyl)-N2-(4-methyltetrahydro-2H-pyran-4-yl)-N8-(3-(trifluoromethoxy)phenyl)-9H-purine-2,8-diamine]
[1]; [4]
  IC50: < 150 nM
[2]; [5]
  IC50: < 150 nM
[3]
  IC50: < 150 nM

## CC1(Nc2ncc3nc(Nc4cc(Cl)cc(C(F)(F)F)c4)n([C@H]4CC[C@@H](CN)CC4)c3n2)CCOCC1 [A-36, 9-((1s,4s)-4-(aminomethyl)cyclohexyl)-N8-(3-chloro-5-(trifluoromethyl)phenyl)-N2-(4-methyltetrahydro-2H-pyran-4-yl)-9H-purine-2,8-diamine]
[1]; [4]
  IC50: 150 to 350 nM
[2]; [5]
  IC50: < 150 nM
[3]
  IC50: < 150 nM

## CC1(Nc2ncc3nc(Nc4ccc(OC(F)(F)F)cc4)n([C@H]4CC[C@@H](CN)CC4)c3n2)CCOCC1 [A-38, 9-((1s,4s)-4-(aminomethyl)cyclohexyl)-N2-(4-methyltetrahydro-2H-pyran-4-yl)-N8-(4-(trifluoromethoxy)phenyl)-9H-purine-2,8-diamine]
[1]; [4]
  IC50: 150 to 350 nM
[2]; [5]
  IC50: < 150 nM
[3]
  IC50: < 150 nM

## CCC(C)(C)Nc1ncc2nc(Nc3cccc(C(F)(F)F)c3)n([C@H]3CC[C@@H](CN)CC3)c2n1 [A-13, 9-((1s,4s)-4-(aminomethyl)cyclohexyl)-N2-tert-pentyl-N8-(3-(trifluoromethyl)phenyl)-9H-purine-2,8-diamine]
[1]; [4]
  IC50: < 150 nM
[2]; [5]
  IC50: < 150 nM
[3]
  IC50: < 150 nM

## CC1(Nc2ncc3nc(Nc4cc(F)cc(Cl)c4)n([C@H]4CC[C@@H](CN)CC4)c3n2)CCOCC1 [A-47, 9-((1s,4s)-4-(aminomethyl)cyclohexyl)-N8-(3-chloro-5-fluorophenyl)-N2-(4-methyltetrahydro-2H-pyran-4-yl)-9H-purine-2,8-diamine]
[1]; [4]
  IC50: < 150 nM
[2]; [5]
  IC50: < 150 nM
[3]
  IC50: < 150 nM

## CC1(Nc2ncc3nc(Nc4cccc(C(F)(F)F)c4F)n([C@H]4CC[C@@H](CN)CC4)c3n2)CCOCC1 [A-46, 9-((1s,4s)-4-(aminomethyl)cyclohexyl)-N8-(2-fluoro-3-(trifluoromethyl)phenyl)-N2-(4-methyltetrahydro-2H-pyran-4-yl)-9H-purine-2,8-diamine]
[1]; [4]
  IC50: < 150 nM
[2]; [5]
  IC50: < 150 nM
[3]
  IC50: < 150 nM

## CN(C)C[C@H]1CC[C@@H](n2c(Nc3cccc(C(F)(F)F)c3)nc3cnc(NC4(C)CCOCC4)nc32)CC1 [A-56, 9-((1s,4s)-4-((dimethylamino)methyl)cyclohexyl)-N2-(4-methyltetrahydro-2H-pyran-4-yl)-N8-(3-(trifluoromethyl)phenyl)-9H-purine-2,8-diamine]
[1]; [4]
  IC50: < 150 nM
[3]
  IC50: < 150 nM

## CCC(C)(C)Nc1ncc2nc(Nc3ccc(C(F)(F)F)cc3)n([C@H]3CC[C@@H](CN)CC3)c2n1 [A-23, 9-((1s,4s)-4-(aminomethyl)cyclohexyl)-N2-tert-pentyl-N8-(4-(trifluoromethyl)phenyl)-9H-purine-2,8-diamine]
[2]; [5]
  IC50: 350 to 500 nM
[3]
  IC50: 350 to 500 nM

## CC1(Nc2ncc3nc(Nc4cc(C(F)(F)F)ccc4F)n(C4CCC(N)CC4)c3n2)CCOCC1 (stereo not shown) [A-59, 9-(4-aminocyclohexyl)-N8-(2-fluoro-5-(trifluoromethyl)phenyl)-N2-(4-methyltetrahydro-2H-pyran-4-yl)-9H-purine-2,8-diamine]
[2]; [5]
  IC50: < 150 nM
[3]
  IC50: 150 to 350 nM

## CC(C)(C)Nc1ncc2nc(Nc3ccc(C(F)(F)F)cc3)n([C@H]3CC[C@@H](CN)CC3)c2n1 [A-22, 9-((1s,4s)-4-(aminomethyl)cyclohexyl)-N2-tert-butyl-N8-(4-(trifluoromethyl)phenyl)-9H-purine-2,8-diamine]
[2]; [5]
  IC50: 350 to 500 nM
[3]
  IC50: 150 to 350 nM

## CC1(Nc2ncc3nc(Nc4cccc(F)c4F)n(C4CCC(CN)CC4)c3n2)CCOCC1 (stereo not shown) [A-9, 9-((1s,4s)-4-(aminomethyl)cyclohexyl)-N8-(2,3-difluorophenyl)-N2-(4-methyltetrahydro-2H-pyran-4-yl)-9H-purine-2,8-diamine]
[2]; [5]
  IC50: < 150 nM
[3]
  IC50: < 150 nM

## CNC[C@H]1CC[C@@H](n2c(Nc3cccc(C(F)(F)F)c3)nc3cnc(NC4(C)CCOCC4)nc32)CC1 [A-58, 9-((1s,4s)-4-((methylamino)methyl)cyclohexyl)-N2-(4-methyltetrahydro-2H-pyran-4-yl)-N8-(3-(trifluoromethyl)phenyl)-9H-purine-2,8-diamine]
[2]; [5]
  IC50: < 150 nM
[3]
  IC50: < 150 nM

## CC1(Nc2ncc3nc(Nc4ccccn4)n(C4CCC(CN)CC4)c3n2)CCOCC1 (stereo not shown) [A-8, 9-((1s,4s)-4-(aminomethyl)cyclohexyl)-N2-(4-methyltetrahydro-2H-pyran-4-yl)-N8-(pyridin-2-yl)-9H-purine-2,8-diamine]
[2]; [5]
  IC50: 150 to 350 nM
[3]
  IC50: 350 to 500 nM

## NC1CCC(n2c(Nc3cccc(Cl)c3)nc3cnc(NC4CC4)nc32)CC1 (stereo not shown) [B-2, 9-((1r,4r)-4-aminocyclohexyl)-N8-(3-chlorophenyl)-N2-cyclopropyl-9H-purine-2,8-diamine]
[2]; [5]
  IC50: < 150 nM
[3]
  IC50: 350 to 500 nM

## CCC(C)(C)Nc1ncc2nc(Nc3cccc(Cl)c3)n([C@H]3CC[C@@H](CN)CC3)c2n1 [A-3, 9-((1s,4s)-4-(aminomethyl)cyclohexyl)-N8-(3-chlorophenyl)-N2-tert-pentyl-9H-purine-2,8-diamine]
[2]; [5]
  IC50: < 150 nM
[3]
  IC50: < 150 nM

## CC1(O)CCC(Nc2ncc3nc(Nc4cccc(Cl)c4)n(C4CCC(CN)CC4)c3n2)CC1 (stereo not shown) [B-11, 4-(9-((1s,4s)-4-(aminomethyl)cyclohexyl)-8-(3-chlorophenylamino)-9H-purin-2-ylamino)-1-methylcyclohexanol]
[2]; [5]
  IC50: < 150 nM
[3]
  IC50: 350 to 500 nM
